Where “and” joins values, the source holds several entries; their conditions need not be identical. Equal values may be shown once.
Details: Fluid (supercritical or subcritical phases), Hot wire method

[HH] [hydrogen]
Details	thermal conductivity
423.27 K, 402 kPa	0.2431 W/m/K
473.27 K, 10065 kPa	0.2681 W/m/K and 0.2687 W/m/K
473.27 K, 30123 kPa	0.2799 W/m/K
473.27 K, 30124 kPa	0.28 W/m/K and 0.2803 W/m/K
473.27 K, 70155 kPa	0.3079 W/m/K
473.27 K, 70156 kPa	0.3088 W/m/K
473.27 K, 70160 kPa	0.3069 W/m/K
473.27 K, 97457 kPa	0.3277 W/m/K
473.27 K, 97459 kPa	0.3262 W/m/K
473.27 K, 97460 kPa	0.3282 W/m/K
473.28 K, 407 kPa	0.2609 W/m/K
473.28 K, 408 kPa	0.261 W/m/K
473.28 K, 409 kPa	0.2611 W/m/K
473.28 K, 5166 kPa	0.2673 W/m/K
473.28 K, 5167 kPa	0.267 W/m/K and 0.2671 W/m/K
473.28 K, 10065 kPa	0.2691 W/m/K
473.28 K, 50176 kPa	0.294 W/m/K
473.28 K, 50178 kPa	0.2937 W/m/K
473.28 K, 50179 kPa	0.292 W/m/K
473.29 K, 408 kPa	0.2613 W/m/K
573.26 K, 50202 kPa	0.3283 W/m/K
573.26 K, 50208 kPa	0.3253 W/m/K
573.26 K, 96979 kPa	0.356 W/m/K
573.26 K, 96990 kPa	0.3549 W/m/K
573.26 K, 97001 kPa	0.3548 W/m/K
573.27 K, 5202 kPa	0.3043 W/m/K and 0.3057 W/m/K and 0.3047 W/m/K
573.27 K, 10155 kPa	0.3066 W/m/K and 0.3072 W/m/K
573.27 K, 10156 kPa	0.3066 W/m/K
573.27 K, 30167 kPa	0.3171 W/m/K and 0.3173 W/m/K and 0.3175 W/m/K
573.27 K, 50204 kPa	0.3274 W/m/K
573.27 K, 70099 kPa	0.3376 W/m/K
573.27 K, 70106 kPa	0.3381 W/m/K
573.27 K, 70114 kPa	0.3387 W/m/K
573.28 K, 365 kPa	0.2934 W/m/K
573.28 K, 367 kPa	0.2929 W/m/K
573.28 K, 369 kPa	0.2931 W/m/K
672.87 K, 30056 kPa	0.3514 W/m/K
672.87 K, 30063 kPa	0.3522 W/m/K
672.87 K, 30074 kPa	0.3514 W/m/K
672.87 K, 50096 kPa	0.36 W/m/K
672.87 K, 50118 kPa	0.3625 W/m/K
672.87 K, 98041 kPa	0.3854 W/m/K
672.87 K, 98074 kPa	0.3853 W/m/K
672.87 K, 98109 kPa	0.3873 W/m/K
672.88 K, 5137 kPa	0.342 W/m/K
672.88 K, 5140 kPa	0.344 W/m/K
672.88 K, 5143 kPa	0.3429 W/m/K
672.88 K, 5147 kPa	0.343 W/m/K
672.88 K, 10059 kPa	0.3459 W/m/K
672.88 K, 10060 kPa	0.3456 W/m/K
672.88 K, 10061 kPa	0.3445 W/m/K
672.88 K, 50107 kPa	0.3616 W/m/K
672.88 K, 70012 kPa	0.3693 W/m/K
672.88 K, 70030 kPa	0.3711 W/m/K
672.88 K, 70044 kPa	0.3699 W/m/K
672.89 K, 304 kPa	0.3296 W/m/K and 0.329 W/m/K
672.89 K, 305 kPa	0.329 W/m/K
672.89 K, 306 kPa	0.3287 W/m/K
771.9 K, 29994 kPa	0.3905 W/m/K
771.9 K, 30036 kPa	0.3906 W/m/K
771.9 K, 49904 kPa	0.3973 W/m/K
771.9 K, 49932 kPa	0.3973 W/m/K
771.9 K, 70405 kPa	0.408 W/m/K
771.9 K, 70444 kPa	0.4037 W/m/K
771.9 K, 70484 kPa	0.4065 W/m/K
771.9 K, 98954 kPa	0.4176 W/m/K
771.9 K, 99008 kPa	0.417 W/m/K
771.9 K, 99143 kPa	0.4168 W/m/K
771.9 K, 99205 kPa	0.4188 W/m/K
771.91 K, 5144 kPa	0.3835 W/m/K
771.91 K, 10086 kPa	0.3838 W/m/K
771.91 K, 10092 kPa	0.3825 W/m/K
771.91 K, 10100 kPa	0.3836 W/m/K
771.91 K, 10109 kPa	0.3825 W/m/K
771.91 K, 30014 kPa	0.3888 W/m/K
771.91 K, 30058 kPa	0.39 W/m/K
771.91 K, 49879 kPa	0.3964 W/m/K
771.91 K, 70520 kPa	0.4053 W/m/K
771.92 K, 378 kPa	0.3679 W/m/K
771.92 K, 381 kPa	0.3675 W/m/K
771.92 K, 383 kPa	0.3671 W/m/K
771.92 K, 386 kPa	0.3678 W/m/K
771.92 K, 5136 kPa	0.3832 W/m/K
771.92 K, 5140 kPa	0.3835 W/m/K

Source: the NIST ThermoML archive (doi:10.1007/s10765-011-1052-5)
